{"source": "EPA's ToxValDB 9.5 (doi:10.2903/j.efsa.2017.4978)", "key": {"Mus musculus": {"test_system": "Mus musculus", "conditions": "acute; mortality"}, "Folsomia candida": {"test_system": "Folsomia candida", "conditions": "chronic/long-term; duration: 28 days; reproduction"}, "Hypoaspis aculeifer": {"test_system": "Hypoaspis aculeifer", "conditions": "chronic/long-term; duration: 14 days; reproduction"}, "Tagia sp.": {"test_system": "Tagia sp.", "conditions": "chronic/long-term; duration: 56 days; reproduction"}, "[1]": {"conditions": "chronic"}, "Anas platyrhynchos": {"test_system": "Anas platyrhynchos", "conditions": "reproductive"}, "Apis mellifera": {"test_system": "Apis mellifera", "conditions": "acute, mortality"}, "Bibionidae": {"test_system": "Bibionidae", "conditions": "chronic/long-term; duration: 28 days"}, "Canidae": {"test_system": "Canidae", "conditions": "oral, Dog Other, organ weight"}, "Colinus virginianus": {"test_system": "Colinus virginianus", "conditions": "oral"}, "Cyprinodon variegatus": {"test_system": "Cyprinodon variegatus", "conditions": "acute; duration: 96 hours; mortality"}, "Daphnia magna": {"test_system": "Daphnia magna", "conditions": "chronic/long-term; duration: 21 days; reproduction"}, "Pimephales promelas": {"test_system": "Pimephales promelas", "conditions": "chronic/long-term; duration: 262 days; growth"}, "Aphidius rhopalosiphi": {"test_system": "Aphidius rhopalosiphi", "assay": "LR50; higher = less toxic", "conditions": "not reported; mortality"}}, "data": [{"smiles": "Cc1cc(C)cc(C(=O)N(NC(=O)c2cccc(O)c2C)C(C)(C)C)c1", "values": [{"measurement": "LD50", "setting": "Mus musculus", "result": "> 5000", "unit": "mg/kg"}]}, {"smiles": "COc1cccc(C(=O)NN(C(=O)c2cc(C)cc(C(=O)O)c2)C(C)(C)C)c1C", "values": [{"measurement": "NOEC", "setting": "Folsomia candida", "result": 20, "unit": "mg/kg"}, {"measurement": "NOEC", "setting": "Hypoaspis aculeifer", "result": 1000, "unit": "mg/kg"}, {"measurement": "NOEC", "setting": "Tagia sp.", "result": 20, "unit": "mg/kg"}]}, {"smiles": "COc1cccc(C(=O)NN(C(=O)c2cc(C)cc(C)c2)C(C)(C)C)c1C", "note": "[Methoxyfenozide]", "values": [{"measurement": "NOEC", "setting": "[1]", "result": 0.01, "unit": "mg/L"}, {"measurement": "NOEL", "setting": "Anas platyrhynchos", "result": 138, "unit": "mg/kg-day"}, {"measurement": "LD50", "setting": "Apis mellifera; duration: 48 hours, dermal", "result": "> 100", "unit": "µg/piece"}, {"measurement": "LD50", "setting": "Apis mellifera; duration: 72 hours, oral, unspecified", "result": "> 2000", "unit": "µg/piece"}, {"measurement": "NOEC", "setting": "Bibionidae", "result": 0.0065, "unit": "mg/L"}, {"measurement": "NOAEL", "setting": "Canidae; chronic, duration: 1 years", "result": 9.8, "unit": "mg/kg-day"}, {"measurement": "NOAEL", "setting": "Canidae; short-term, duration: 2 weeks", "result": 18, "unit": "mg/kg-day"}, {"measurement": "LD50", "setting": "Colinus virginianus; acute, mortality", "result": "> 2250", "unit": "mg/kg-day"}, {"measurement": "NOEC", "setting": "Colinus virginianus; reproduction developmental, diet", "result": "> 82.7", "unit": "mg/kg-day"}, {"measurement": "LC50", "setting": "Cyprinodon variegatus", "result": "> 2.8", "unit": "µg/mL"}, {"measurement": "NOEC", "setting": "Daphnia magna", "result": 0.39, "unit": "mg/L"}, {"measurement": "NOEC", "setting": "Folsomia candida", "result": 20.5, "unit": "mg/kg"}, {"measurement": "LD50", "setting": "Mus musculus", "result": "> 5000", "unit": "mg/kg"}, {"measurement": "NOEC", "setting": "Pimephales promelas", "result": 0.53, "unit": "mg/L"}, {"measurement": "LD50", "setting": "Rattus norvegicus; acute, oral, mortality", "result": "> 5000", "unit": "mg/kg"}, {"measurement": "NOAEL", "setting": "Rattus norvegicus; chronic, duration: 2 years, organ weight", "result": 10.2, "unit": "mg/kg-day"}, {"measurement": "NOAEL", "setting": "Rattus norvegicus; reproduction developmental, M, body weight", "result": 153, "unit": "mg/kg-day"}, {"measurement": "NOEC", "setting": "Tagia sp.", "result": 2.04, "unit": "mg/kg"}, {"measurement": "LR50", "setting": "Aphidius rhopalosiphi", "result": "> 192", "unit": "g/ha"}]}]}
